# Measurements: US8192962B2, “Processes for detecting toxic substances” (Daikin Industries, Ltd., priority 2001, dated 2012)
# Tested on: Genes belonging to other category
# Test: DNA chip mRNA expression in yeast, genes belonging to other category (Table 9)
# Format: cell-based, Saccharomyces cerevisiae S288C
# Summary of the method: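 Ratios compare mRNA levels in stressed and control S. cerevisiae. Each toxicant was applied for two hours to log-phase cultures at 25° C. at a sub-lethal, growth-inhibiting level; fluorescent cDNA (Cy3- or Cy5-dUTP) was hybridized to a genome-wide yeast chip for over 12 h at 65° C.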
structure (smiles),measurement,setting,value
"Cl[C@H]1[C@H](Cl)[C@@H](Cl)[C@@H](Cl)[C@H](Cl)[C@H]1Cl [(7), γ-hexachlorocyclohexane]",The level of expressed mRNA in the presence of chemical substance/The level of expressed mRNA in the absence of chemical substance,yeast gene YAR010C,1.9
same,The level of expressed mRNA in the presence of chemical substance/The level of expressed mRNA in the absence of chemical substance,yeast gene YBL005W-A,1.4
same,The level of expressed mRNA in the presence of chemical substance/The level of expressed mRNA in the absence of chemical substance,yeast gene YBL041W,1.6
same,The level of expressed mRNA in the presence of chemical substance/The level of expressed mRNA in the absence of chemical substance,yeast gene YBL043W,1.5
same,The level of expressed mRNA in the presence of chemical substance/The level of expressed mRNA in the absence of chemical substance,yeast gene YBL078C,3.1
same,The level of expressed mRNA in the presence of chemical substance/The level of expressed mRNA in the absence of chemical substance,yeast gene YBR214W,1.1
same,The level of expressed mRNA in the presence of chemical substance/The level of expressed mRNA in the absence of chemical substance,yeast gene YCL020W,1.5
same,The level of expressed mRNA in the presence of chemical substance/The level of expressed mRNA in the absence of chemical substance,yeast gene YCL027W,1.0
same,The level of expressed mRNA in the presence of chemical substance/The level of expressed mRNA in the absence of chemical substance,yeast gene YCR004C,1.4
same,The level of expressed mRNA in the presence of chemical substance/The level of expressed mRNA in the absence of chemical substance,yeast gene YCR071C,1.4
same,The level of expressed mRNA in the presence of chemical substance/The level of expressed mRNA in the absence of chemical substance,yeast gene YCR088W,1.2
same,The level of expressed mRNA in the presence of chemical substance/The level of expressed mRNA in the absence of chemical substance,yeast gene YDL008W,2.0
same,The level of expressed mRNA in the presence of chemical substance/The level of expressed mRNA in the absence of chemical substance,yeast gene YDL238C,1.4
same,The level of expressed mRNA in the presence of chemical substance/The level of expressed mRNA in the absence of chemical substance,yeast gene YDR055W,1.5
same,The level of expressed mRNA in the presence of chemical substance/The level of expressed mRNA in the absence of chemical substance,yeast gene YDR084C,0.9
same,The level of expressed mRNA in the presence of chemical substance/The level of expressed mRNA in the absence of chemical substance,yeast gene YDR085C,4.1
same,The level of expressed mRNA in the presence of chemical substance/The level of expressed mRNA in the absence of chemical substance,yeast gene YDR104C,1.0
same,The level of expressed mRNA in the presence of chemical substance/The level of expressed mRNA in the absence of chemical substance,yeast gene YDR115W,1.6
same,The level of expressed mRNA in the presence of chemical substance/The level of expressed mRNA in the absence of chemical substance,yeast gene YDR259C,2.8
same,The level of expressed mRNA in the presence of chemical substance/The level of expressed mRNA in the absence of chemical substance,yeast gene YDR315C,1.4
same,The level of expressed mRNA in the presence of chemical substance/The level of expressed mRNA in the absence of chemical substance,yeast gene YDR358W,2.8
same,The level of expressed mRNA in the presence of chemical substance/The level of expressed mRNA in the absence of chemical substance,yeast gene YDR388W,1.1
same,The level of expressed mRNA in the presence of chemical substance/The level of expressed mRNA in the absence of chemical substance,yeast gene YDR432W,0.5
same,The level of expressed mRNA in the presence of chemical substance/The level of expressed mRNA in the absence of chemical substance,yeast gene YDR481C,0.7
same,The level of expressed mRNA in the presence of chemical substance/The level of expressed mRNA in the absence of chemical substance,yeast gene YDR510W,1.6
same,The level of expressed mRNA in the presence of chemical substance/The level of expressed mRNA in the absence of chemical substance,yeast gene YEL042W,0.5
same,The level of expressed mRNA in the presence of chemical substance/The level of expressed mRNA in the absence of chemical substance,yeast gene YEL066W,1.8
same,The level of expressed mRNA in the presence of chemical substance/The level of expressed mRNA in the absence of chemical substance,yeast gene YER039C,1.3
same,The level of expressed mRNA in the presence of chemical substance/The level of expressed mRNA in the absence of chemical substance,yeast gene YER107C,1.0
same,The level of expressed mRNA in the presence of chemical substance/The level of expressed mRNA in the absence of chemical substance,yeast gene YER130C,1.5
same,The level of expressed mRNA in the presence of chemical substance/The level of expressed mRNA in the absence of chemical substance,yeast gene YFL022C,0.3
same,The level of expressed mRNA in the presence of chemical substance/The level of expressed mRNA in the absence of chemical substance,yeast gene YFL028C,2.0
same,The level of expressed mRNA in the presence of chemical substance/The level of expressed mRNA in the absence of chemical substance,yeast gene YFL043C,1.8
same,The level of expressed mRNA in the presence of chemical substance/The level of expressed mRNA in the absence of chemical substance,yeast gene YGL158W,1.3
same,The level of expressed mRNA in the presence of chemical substance/The level of expressed mRNA in the absence of chemical substance,yeast gene YGL229C,2.2
same,The level of expressed mRNA in the presence of chemical substance/The level of expressed mRNA in the absence of chemical substance,yeast gene YGR136W,1.5
same,The level of expressed mRNA in the presence of chemical substance/The level of expressed mRNA in the absence of chemical substance,yeast gene YGR189C,0.6
same,The level of expressed mRNA in the presence of chemical substance/The level of expressed mRNA in the absence of chemical substance,yeast gene YGR213C,7.0
same,The level of expressed mRNA in the presence of chemical substance/The level of expressed mRNA in the absence of chemical substance,yeast gene YGR257C,2.4
same,The level of expressed mRNA in the presence of chemical substance/The level of expressed mRNA in the absence of chemical substance,yeast gene YHR004C,1.5
same,The level of expressed mRNA in the presence of chemical substance/The level of expressed mRNA in the absence of chemical substance,yeast gene YHR071W,1.0
same,The level of expressed mRNA in the presence of chemical substance/The level of expressed mRNA in the absence of chemical substance,yeast gene YHR139C,1.5
same,The level of expressed mRNA in the presence of chemical substance/The level of expressed mRNA in the absence of chemical substance,yeast gene YHR142W,0.9
same,The level of expressed mRNA in the presence of chemical substance/The level of expressed mRNA in the absence of chemical substance,yeast gene YIL123W,0.5
same,The level of expressed mRNA in the presence of chemical substance/The level of expressed mRNA in the absence of chemical substance,yeast gene YIL140W,0.5
same,The level of expressed mRNA in the presence of chemical substance/The level of expressed mRNA in the absence of chemical substance,yeast gene YJL089W,1.1
same,The level of expressed mRNA in the presence of chemical substance/The level of expressed mRNA in the absence of chemical substance,yeast gene YJL116C,0.8
same,The level of expressed mRNA in the presence of chemical substance/The level of expressed mRNA in the absence of chemical substance,yeast gene YJR004C,0.4
same,The level of expressed mRNA in the presence of chemical substance/The level of expressed mRNA in the absence of chemical substance,yeast gene YJR086W,1.7
same,The level of expressed mRNA in the presence of chemical substance/The level of expressed mRNA in the absence of chemical substance,yeast gene YKL008C,1.4
